Measured values from patent US20240059961A1, “BIOCOMPATIBLE OXYGEN-SENSITIVE MATERIALS” (Promega Corporation, priority 2022, published 2024).

How the values were obtained:
Assay type in all cases: cell-based
C2C12 cells = experiment: Cell attachment / cellular coverage on protein-coated siloxane surface; conditions: for coating concentration sufficient to enhance the adhesion of cells to the surface: C2C12 cells on coated siloxane surface; for cellular coverage on the substrate: C2C12 seeded at 60,000 cells/cm^2, assessed the following day, covalent or passive coating, 100-3,000 ug mL-1
Procedure: After silane film fabrication, the film surface was further modified with a biomacromolecule coating to enhance cell attachment. Biomacromolecules assessed for cell attachment include collagen type I (rat tail, acid extracted) and laminin. […] Passive coating of the substrate is achieved by incubating a solution of the biomacromolecule (e.g., 300 ug mL-1 collagen type I in 17 mM acetic acid) on the film for either 1 hour at room temperature or overnight at 4° C. Excess biomacromolecule was removed by washing the substrate with phosphate buffered saline (PBS).
The surface was coated with Collagen I and Laminin, either covalently or passively. Covalent conjugation is achieved with sulfo-SANPAH conjugation method, and passive coating is achieved by incubating the siloxane surface in the presence of the protein for 1 hour at room temperature. The protein was titrated from 100 ug mL-1-3,000 ug mL-1. C2C12 cells were seeded on the coated surface at 60,000 cells/cm^2, and cellular coverage on the substrate was assessed the following day.

HCT-116 cells = experiment: Oxygen consumption of HCT-116 cells on the oxygen sensing film
Procedure: To determine the minimum number of cells necessary to observe a signal change, HCT-116 cells were titrated from 15k-120k cells/well (95k-750k cells/cm^2). The following day, the culture medium of the cells was replaced with fresh DMEM (high glucose, without phenol red), and the ratiometric fluorescence of 650/490 nm was recorded over time in a plate reader with temperature control at 37° C. […] Further experiments using drug treatments were carried out at 250k cells/cm^2.
HCT-116 cells were seeded onto the oxygen sensing surface functionalized with 300 ug mL-1 Collagen I at 40,000 cells/well of a half-area 96-well plate (250,000 cells/cm^2). The following day, the culture medium was replaced with medium containing 2-[[4-(trifluoromethoxy)phenyl]hydrazinylidene]propanedinitrile (FCCP), an uncoupler of oxidative phosphorylation in mitochondria that increases oxygen consumption. […] HCT-116 cells were additionally treated with rotenone at 2 uM, which is an inhibitor of oxidative phosphorylation.

HEP-G2 = experiment: Oxygen consumption of HEP-G2 cells on the oxygen sensing film; conditions: HEP-G2, drug treatment
PC-3 = experiment: Oxygen consumption of PC-3 cells on the oxygen sensing film; conditions: PC-3, drug treatment

| Compound | coating concentration sufficient to enhance the adhesion of cells to the surface (C2C12 cells) | cellular coverage on the substrate (C2C12 cells) | cell attachment (C2C12 cells; passive coating of the film) | oxygen consumption (HCT-116 cells; HCT-116, rotenone at 2 uM) | oxygen consumption (HEP-G2) | oxygen consumption (PC-3) | oxygen consumption (HCT-116 cells; HCT-116, 40,000 cells/well, FCCP treatment, concentration up to 4 uM) |
| --- | --- | --- | --- | --- | --- | --- | --- |
| Collagen I: collagen type I (rat tail, acid extracted), biomacromolecule coating to enhance cell attachment | 300 µg/mL | enhanced cellular coverage | sufficient for cell attachment |  |  |  |  |
| C=C(C)[C@H]1Cc2c(ccc3c2O[C@@H]2COc4cc(OC)c(OC)cc4[C@@H]2C3=O)O1 [rotenone] |  |  |  | inhibited oxygen consumption | decreased oxygen consumption | decreased oxygen consumption |  |
| Laminin | 300 µg/mL | enhanced cellular coverage |  |  |  |  |  |
| N#CC(C#N)=NNc1ccc(OC(F)(F)F)cc1 [FCCP, 2-[[4-(trifluoromethoxy)phenyl]hydrazinylidene]propanedinitrile] |  |  |  |  | increased oxygen consumption | increased oxygen consumption | oxygen consumption increased with increasing FCCP concentration up to 4 uM |
